Here are results for two substances from patent US9974849B2, “Human Papilloma virus therapeutic vaccine” (The Board of Trustees of the University of Arkansas, priority 2013, dated 2018).

The nature of series [1]: Solubilizing HPV E6 peptides in buffer. Format: physicochemical. The method, then:
We attempted to make a pharmaceutical formulation with four HPV E6 peptides. The 4 peptides were peptides consisting of residues 1-45, 46-80, 81-115, and 116-158 of SEQ ID NO:1. Each of the peptides was amidated at its carboxyl terminus and acetylated at its amino terminus. The peptides were each chemically synthesized.
For the pharmaceutical formulation, this was mixed with trehalose as a stabilizing agent and glycine as tonicity modifier. The final concentrations of the formulation were 10 mM glutamate, 1.0% w/v trehalose, 2.0% w/v glycine, and 0.714 mg/ml each of the four peptides.

Series [2] relates to CD3 T cells co-cultured with autologous LCs. As to the kind of experiment: T cell proliferation induced by treated LCs (alamarBlue). Format: cell-based, human. The settings on record: 7 days co-culture.

“Ac-SEYRHYCYSLYGTTLEQQYNK PLCDLLIRCINCQK-NH2 [E6 81-115]”: the Solubility result is “could be solubilized and will stay soluble” in series [1] (added to 10 mM glutamate, pH 4.0 solution already containing solubilized E6 1-45, E6 46-80, E6 116-158, 5 mg/ml for each of the four peptides); “insoluble” in series [1] (alone, in any suitable buffer for manufacturing).
As to tetanus toxoid, the “Subjects with measurable proliferation (increased fluorescence of ≥5000)” value in series [2] was “subjects 2 and 5”. Further, the T-cell proliferation entry in series [2] (over media) is “no significant increase over media”.
